From patent US20250339409A1, “USES OF PAN BET INHIBITORS” (VYNE THERAPEUTICS INC., priority 2021, published 2025)
“And” between values parts separate entries of the source, which are not always exact repeats. Identical values can stand only once. Marks after values point to notes of the source that are not given here.

System: anti collagen antibodies induced arthritis (ACAIA)
Experiment: Anti collagen antibodies induced arthritis (ACAIA) in mice, intra-articular treatment: paw thickness, arthritis clinical score, body weight;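 also: mouse arthritis induced by IV anti-collagen mAb on day 0 plus IP LPS on day 4, with body weight, caliper paw thickness and 0-4 paw score tracked against a day 0 baseline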

C[C@@H]1C[C@H]2[C@@H]3CCC4=CC(=O)C=C[C@]4(C)[C@@]3(F)[C@@H](O)C[C@]2(C)[C@@]1(O)C(=O)CO [dexamethasone, Dexamethasone, reference compound]
Clinical score of treated leg (Avg.) (1 mg/kg IA (Group 7), Baseline): 0.00 points
Paw thickness Avg. Delta untreated -treated (1 mg/kg IA (Group 7), Baseline): 0.00 mm
Percent change of weight per day (Av) (1 mg/kg IA (Group 7), Baseline): 100.00%
Percent change of weight per day (individual animal) (1 mg/kg IA (Group 7), Baseline): 100%
Δ clinical score untreated -treated, Avg. Delta (1 mg/kg IA (Group 7), Baseline): 0.00 points
Clinical score of treated leg (Avg.) (1 mg/kg IA (Group 7), Day 3): 0.00 points
Paw thickness Avg. Delta untreated -treated (1 mg/kg IA (Group 7), Day 3): −0.02 mm
Percent change of weight per day (Av) (1 mg/kg IA (Group 7), Day 3): 98.19%
Percent change of weight per day (individual animal) (1 mg/kg IA (Group 7), Day 3): 100% and 97.54% and 95.7% and 99.48%
Δ clinical score untreated -treated, Avg. Delta (1 mg/kg IA (Group 7), Day 3): 0.00 points
Clinical score of treated leg (Avg.) (1 mg/kg IA (Group 7), Day 4): 0.00 points
Paw thickness Avg. Delta untreated -treated (1 mg/kg IA (Group 7), Day 4): −0.06 mm
Percent change of weight per day (Av) (1 mg/kg IA (Group 7), Day 4): 95.21%
Percent change of weight per day (individual animal) (1 mg/kg IA (Group 7), Day 4): 97.91% and 96.55% and 93.01% and 93.23%
Δ clinical score untreated -treated, Avg. Delta (1 mg/kg IA (Group 7), Day 4): 0.00 points
Clinical score of treated leg (Avg.) (1 mg/kg IA (Group 7), Day 5): 0.00 points
Paw thickness Avg. Delta untreated -treated (1 mg/kg IA (Group 7), Day 5): −0.05 mm
Percent change of weight per day (Av) (1 mg/kg IA (Group 7), Day 5): 91.29%
Percent change of weight per day (individual animal) (1 mg/kg IA (Group 7), Day 5): 90.58% and 91.133% and 88.71% and 100%
Δ clinical score untreated -treated, Avg. Delta (1 mg/kg IA (Group 7), Day 5): 0.00 points
Clinical score of treated leg (Avg.) (1 mg/kg IA (Group 7), Day 6): 0.29 points
Paw thickness Avg. Delta untreated -treated (1 mg/kg IA (Group 7), Day 6): 0.05 mm
Paw thickness of treated leg (Avg.) (1 mg/kg IA (Group 7), Day 6): 2.24** mm
Paw thickness of untreated leg (Avg.) (1 mg/kg IA (Group 7), Day 6): 2.29 mm
Percent change of weight per day (Av) (1 mg/kg IA (Group 7), Day 6): 88.66%
Percent change of weight per day (individual animal) (1 mg/kg IA (Group 7), Day 6): 86.91% and 87.68% and 86.02% and 102.0833%
Δ clinical score untreated -treated, Avg. Delta (1 mg/kg IA (Group 7), Day 6): 0.29 points
Clinical score of treated leg (Avg.) (1 mg/kg IA (Group 7), Day 7): 0.86 points
Paw thickness Avg. Delta untreated -treated (1 mg/kg IA (Group 7), Day 7): −0.01 mm
Paw thickness of treated leg (Avg.) (1 mg/kg IA (Group 7), Day 7): 2.30** mm
Paw thickness of untreated leg (Avg.) (1 mg/kg IA (Group 7), Day 7): 2.30 mm
Percent change of weight per day (Av) (1 mg/kg IA (Group 7), Day 7): 88.04%
Percent change of weight per day (individual animal) (1 mg/kg IA (Group 7), Day 7): 89.01% and 83.25% and 86.02% and 104.1667%
Δ clinical score untreated -treated, Avg. Delta (1 mg/kg IA (Group 7), Day 7): 0.00 points
Clinical score of treated leg (Avg.) (1 mg/kg IA (Group 7), Day 8): 1.14 points
Paw thickness Avg. Delta untreated -treated (1 mg/kg IA (Group 7), Day 8): 0.14 mm
Paw thickness of treated leg (Avg.) (1 mg/kg IA (Group 7), Day 8): 2.44 mm
Paw thickness of untreated leg (Avg.) (1 mg/kg IA (Group 7), Day 8): 2.59 mm
Percent change of weight per day (Av) (1 mg/kg IA (Group 7), Day 8): 89.48%
Percent change of weight per day (individual animal) (1 mg/kg IA (Group 7), Day 8): 90.05% and 83.25% and 87.63% and 104.6875%
Δ clinical score untreated -treated, Avg. Delta (1 mg/kg IA (Group 7), Day 8): 0.57 points
Clinical score of treated leg (Avg.) (1 mg/kg IA (Group 7), Day 10): 1.14 points
Paw thickness Avg. Delta untreated -treated (1 mg/kg IA (Group 7), Day 10): 0.19 mm
Paw thickness of treated leg (Avg.) (1 mg/kg IA (Group 7), Day 10): 2.45 mm
Paw thickness of untreated leg (Avg.) (1 mg/kg IA (Group 7), Day 10): 2.64 mm
Percent change of weight per day (Av) (1 mg/kg IA (Group 7), Day 10): 92.65%
Percent change of weight per day (individual animal) (1 mg/kg IA (Group 7), Day 10): 91.1% and 92.61% and 87.63% and 104.1667%
Δ clinical score untreated -treated, Avg. Delta (1 mg/kg IA (Group 7), Day 10): 0.43 points
Clinical score of treated leg (Avg.) (1 mg/kg IA (Group 7), Day 12): 1.29 points
Paw thickness Avg. Delta untreated -treated (1 mg/kg IA (Group 7), Day 12): 0.24 mm
Paw thickness of treated leg (Avg.) (1 mg/kg IA (Group 7), Day 12): 2.50 mm
Paw thickness of untreated leg (Avg.) (1 mg/kg IA (Group 7), Day 12): 2.74 mm
Percent change of weight per day (Av) (1 mg/kg IA (Group 7), Day 12): 96.89%
Percent change of weight per day (individual animal) (1 mg/kg IA (Group 7), Day 12): 93.19% and 99.01% and 90.32% and 110.4167% and 94.55%
Δ clinical score untreated -treated, Avg. Delta (1 mg/kg IA (Group 7), Day 12): 0.43 points
Clinical score of treated leg (Avg.) (1 mg/kg IP (Group 6), Baseline): 0.00 points
Paw thickness Avg. Delta untreated -treated (1 mg/kg IP (Group 6), Baseline): 0.02 mm
Percent change of weight per day (Av) (1 mg/kg IP (Group 6), Baseline): 100.00%
Percent change of weight per day (individual animal) (1 mg/kg IP (Group 6), Baseline): 100%
Δ clinical score untreated -treated, Avg. Delta (1 mg/kg IP (Group 6), Baseline): 0.00 points
Clinical score of treated leg (Avg.) (1 mg/kg IP (Group 6), Day 3): 0.00 points
Paw thickness Avg. Delta untreated -treated (1 mg/kg IP (Group 6), Day 3): 0.00 mm
Percent change of weight per day (Av) (1 mg/kg IP (Group 6), Day 3): 95.60** percent
Percent change of weight per day (individual animal) (1 mg/kg IP (Group 6), Day 3): 94.97% and 94.09% and 95.07% and 96.31% and 96.24% and 96.41% and 96.1165%
Δ clinical score untreated -treated, Avg. Delta (1 mg/kg IP (Group 6), Day 3): 0.00 points
Clinical score of treated leg (Avg.) (1 mg/kg IP (Group 6), Day 4): 0.00 points
Paw thickness Avg. Delta untreated -treated (1 mg/kg IP (Group 6), Day 4): −0.01 mm
Percent change of weight per day (Av) (1 mg/kg IP (Group 6), Day 4): 96.59%
Percent change of weight per day (individual animal) (1 mg/kg IP (Group 6), Day 4): 96.48% and 95.5665% and 97.04% and 96.31% and 96.71% and 97.4359% and 96.6%
Δ clinical score untreated -treated, Avg. Delta (1 mg/kg IP (Group 6), Day 4): 0.00 points
Clinical score of treated leg (Avg.) (1 mg/kg IP (Group 6), Day 5): 0.00 points
Paw thickness Avg. Delta untreated -treated (1 mg/kg IP (Group 6), Day 5): 0.01 mm
Percent change of weight per day (Av) (1 mg/kg IP (Group 6), Day 5): 88.34%
Percent change of weight per day (individual animal) (1 mg/kg IP (Group 6), Day 5): 88.44% and 86.2069% and 91.63% and 86.18% and 86.85% and 89.74% and 89.32%
Δ clinical score untreated -treated, Avg. Delta (1 mg/kg IP (Group 6), Day 5): 0.00 points
Clinical score of treated leg (Avg.) (1 mg/kg IP (Group 6), Day 6): 0.00* points
Paw thickness Avg. Delta untreated -treated (1 mg/kg IP (Group 6), Day 6): −0.05 mm
